Source: ChEMBL document CHEMBL5518226, “A Vancomycin-Templated DNA-Encoded Library for Combating Drug-Resistant Bacteria” (2024)
In brackets after ≈: the same amount, converted by molar mass.

Key:
Format in all cases: functional
[1] = tested on: Enterococcus faecalis; test: Antibacterial activity against Enterococcus faecalis clinical isolate 20-11 assessed as inhibition of bacterial growth incubated for 24 hrs by CLSI protocol based broth microdilution method
[2] = tested on: Staphylococcus aureus; test: Antibacterial activity against methicillin resistant Staphylococcus aureus clinical isolate 20-34 assessed as inhibition of bacterial growth incubated for 24 hrs by CLSI protocol based broth microdilution method
[3] = tested on: Enterococcus faecium; test: Antibacterial activity against Enterococcus faecium clinical isolate 20-15 assessed as inhibition of bacterial growth incubated for 24 hrs by CLSI protocol based broth microdilution method
[4] = tested on: Enterococcus faecalis; test: Antibacterial activity against vancomycin resistant Enterococcus faecalis clinical isolate 20-1 assessed as inhibition of bacterial growth incubated for 24 hrs by CLSI protocol based broth microdilution method
[5] = tested on: Staphylococcus aureus; test: Antibacterial activity against methicillin sensitive Staphylococcus aureus Newman assessed as inhibition of bacterial growth incubated for 24 hrs by CLSI protocol based broth microdilution method
[6] = tested on: Staphylococcus aureus; test: Antibacterial activity against methicillin resistant Staphylococcus aureus USA300 assessed as inhibition of bacterial growth incubated for 24 hrs by CLSI protocol based broth microdilution method
[7] = tested on: Enterococcus faecium; test: Antibacterial activity against Enterococcus faecium clinical isolate 20-16 assessed as inhibition of bacterial growth incubated for 24 hrs by CLSI protocol based broth microdilution method
[8] = tested on: Staphylococcus aureus; test: Antibacterial activity against vancomycin-intermediate resistant Staphylococcus aureus ATCC700699 assessed as inhibition of bacterial growth incubated for 24 hrs by CLSI protocol based broth microdilution method
[9] = tested on: Staphylococcus epidermidis; test: Antibacterial activity against methicillin resistant Staphylococcus epidermidis clinical isolate 20-1 assessed as inhibition of bacterial growth incubated for 24 hrs by CLSI protocol based broth microdilution method
[10] = tested on: Streptococcus pneumoniae; test: Antibacterial activity against penicillin susceptible Streptococcus pneumoniae clinical isolate 20-1 assessed as inhibition of bacterial growth incubated for 24 hrs by CLSI protocol based broth microdilution method
[11] = tested on: Staphylococcus aureus; test: Antibacterial activity against methicillin sensitive Staphylococcus aureus clinical isolate 20-45 assessed as inhibition of bacterial growth incubated for 24 hrs by CLSI protocol based broth microdilution method
[12] = tested on: Staphylococcus aureus; test: Antibacterial activity against methicillin sensitive Staphylococcus aureus ATCC29213 assessed as inhibition of bacterial growth incubated for 24 hrs by CLSI protocol based broth microdilution method
[13] = tested on: Enterococcus faecium; test: Antibacterial activity against vancomycin-resistant Enterococcus faecium 0649 assessed as reduction in bacterial growth by measuring fold change at 0.0625 to 64 ug/ml incubated for 24 hrs by CLSI protocol based broth microdilution method relative to vancomycin; details: dose 0.0625-64 µg/ml
[14] = tested on: Staphylococcus epidermidis; test: Antibacterial activity against methicillin sensitive Staphylococcus epidermidis clinical isolate 20-1 assessed as inhibition of bacterial growth incubated for 24 hrs by CLSI protocol based broth microdilution method
[15] = tested on: Streptococcus pneumoniae; test: Antibacterial activity against Streptococcus pneumoniae ATCC49619 assessed as inhibition of bacterial growth incubated for 24 hrs by CLSI protocol based broth microdilution method
[16] = tested on: Staphylococcus aureus; test: Antibacterial activity against vancomycin-intermediate resistant Staphylococcus aureus Mu50 assessed as reduction in bacterial growth by measuring fold change at 0.0625 to 64 ug/ml incubated for 24 hrs by CLSI protocol based broth microdilution method relative to vancomycin; details: dose 0.0625-64 µg/ml
[17] = tested on: Staphylococcus aureus; test: Antibacterial activity against linezolid resistant Staphylococcus aureus clinical isolate 20-1 assessed as inhibition of bacterial growth incubated for 24 hrs by CLSI protocol based broth microdilution method

SMILES | MIC [1] | MIC [2] | MIC [3] | MIC [4] | MIC [5] | MIC [6] | MIC [7] | MIC [8] | MIC [9] | MIC [10] | MIC [11] | MIC [12] | fold change (FC) [13] | MIC [14] | MIC [15] | fold change (FC) [16] | MIC [17]
CN[C@H](CC(C)C)C(=O)N[C@H]1C(=O)N[C@@H](CC(N)=O)C(=O)N[C@H]2C(=O)N[C@H]3C(=O)N[C@H](C(=O)N[C@H](C(=O)NCCCc4cn(-c5ccc(OC(F)F)cc5)nn4)c4cc(O)cc(O)c4-c4cc3ccc4O)[C@H](O)c3ccc(c(Cl)c3)Oc3cc2cc(c3O[C@@H]2O[C@H](CO)[C@@H](O)[C@H](O)[C@H]2O[C@H]2C[C@](C)(N)[C@H](O)[C@H](C)O2)Oc2ccc(cc2Cl)[C@H]1O | ≤ 0.015 µg/mL | 0.06 µg/mL (≈ 0.0353 µM) | ≤ 0.015 µg/mL | 16 µg/mL (≈ 9.41 µM) | 0.125 µg/mL (≈ 0.0736 µM) | 0.06 µg/mL (≈ 0.0353 µM) | 0.125 µg/mL (≈ 0.0736 µM) | 1 µg/mL (≈ 0.588 µM) | 0.25 µg/mL (≈ 0.147 µM) | ≤ 0.015 µg/mL | ≤ 0.015 µg/mL | ≤ 0.015 µg/mL | 8 | 0.25 µg/mL (≈ 0.147 µM) | ≤ 0.015 µg/mL | 8 | –
CN[C@H](CC(C)C)C(=O)N[C@H]1C(=O)N[C@@H](CC(N)=O)C(=O)N[C@H]2C(=O)N[C@H]3C(=O)N[C@H](C(=O)N[C@H](C(=O)O)c4cc(O)cc(O)c4-c4cc3ccc4O)[C@H](O)c3ccc(c(Cl)c3)Oc3cc2cc(c3O[C@@H]2O[C@H](CO)[C@@H](O)[C@H](O)[C@H]2O[C@H]2C[C@](C)(NCCCc3cn(C4CN(C(c5ccccc5)c5ccccc5)C4)nn3)[C@H](O)[C@H](C)O2)Oc2ccc(cc2Cl)[C@H]1O | 0.06 µg/mL (≈ 0.0337 µM) | – | ≤ 0.03 µg/mL | 8 µg/mL (≈ 4.5 µM) | ≤ 0.015 µg/mL | ≤ 0.015 µg/mL | ≤ 0.03 µg/mL | 0.5 µg/mL (≈ 0.281 µM) | – | ≤ 0.03 µg/mL | ≤ 0.03 µg/mL | ≤ 0.03 µg/mL | 8 | ≤ 0.03 µg/mL | ≤ 0.03 µg/mL | 8 | –
CN[C@H](CC(C)C)C(=O)N[C@H]1C(=O)N[C@@H](CC(N)=O)C(=O)N[C@H]2C(=O)N[C@H]3C(=O)N[C@H](C(=O)N[C@H](C(=O)O)c4cc(O)cc(O)c4-c4cc3ccc4O)[C@H](O)c3ccc(c(Cl)c3)Oc3cc2cc(c3O[C@@H]2O[C@H](CO)[C@@H](O)[C@H](O)[C@H]2O[C@H]2C[C@](C)(NCc3ccc(C#Cc4ccccc4)cc3)[C@H](O)[C@H](C)O2)Oc2ccc(cc2Cl)[C@H]1O | ≤ 0.015 µg/mL | 1 µg/mL (≈ 0.61 µM) | ≤ 0.015 µg/mL | 4 µg/mL (≈ 2.44 µM) | ≤ 0.06 µg/mL | ≤ 0.06 µg/mL | ≤ 0.015 µg/mL | 0.125 µg/mL (≈ 0.0762 µM) | – | ≤ 0.015 µg/mL | ≤ 0.015 µg/mL | ≤ 0.015 µg/mL | 16 | ≤ 0.015 µg/mL | ≤ 0.015 µg/mL | 8 | –
CN[C@H](CC(C)C)C(=O)N[C@H]1C(=O)N[C@@H](CC(N)=O)C(=O)N[C@H]2C(=O)N[C@H]3C(=O)N[C@H](C(=O)N[C@H](C(=O)O)c4cc(O)cc(O)c4-c4cc3ccc4O)[C@H](O)c3ccc(c(Cl)c3)Oc3cc2cc(c3O[C@@H]2O[C@H](CO)[C@@H](O)[C@H](O)[C@H]2O[C@H]2C[C@](C)(NCCCc3cn(Cc4ccc(Cl)c(Cl)c4)nn3)[C@H](O)[C@H](C)O2)Oc2ccc(cc2Cl)[C@H]1O | ≤ 0.03 µg/mL | – | ≤ 0.03 µg/mL | 4 µg/mL (≈ 2.33 µM) | ≤ 0.015 µg/mL | ≤ 0.015 µg/mL | ≤ 0.03 µg/mL | 0.125 µg/mL (≈ 0.0728 µM) | 0.06 µg/mL (≈ 0.0349 µM) | ≤ 0.03 µg/mL | ≤ 0.03 µg/mL | ≤ 0.03 µg/mL | 8 | ≤ 0.03 µg/mL | ≤ 0.03 µg/mL | 8 | –
CN[C@H](CC(C)C)C(=O)N[C@H]1C(=O)N[C@@H](CC(N)=O)C(=O)N[C@H]2C(=O)N[C@H]3C(=O)N[C@H](C(=O)N[C@H](C(=O)NCCCc4cn(Cc5ccc(Cl)c(Cl)c5)nn4)c4cc(O)cc(O)c4-c4cc3ccc4O)[C@H](O)c3ccc(c(Cl)c3)Oc3cc2cc(c3O[C@@H]2O[C@H](CO)[C@@H](O)[C@H](O)[C@H]2O[C@H]2C[C@](C)(N)[C@H](O)[C@H](C)O2)Oc2ccc(cc2Cl)[C@H]1O | 0.03 µg/mL (≈ 0.0175 µM) | 0.125 µg/mL (≈ 0.0728 µM) | ≤ 0.015 µg/mL | 16 µg/mL (≈ 9.32 µM) | 0.03 µg/mL (≈ 0.0175 µM) | ≤ 0.015 µg/mL | 0.06 µg/mL (≈ 0.035 µM) | 2 µg/mL (≈ 1.17 µM) | 0.25 µg/mL (≈ 0.146 µM) | ≤ 0.015 µg/mL | 0.125 µg/mL (≈ 0.0728 µM) | 0.125 µg/mL (≈ 0.0728 µM) | 8 | 0.25 µg/mL (≈ 0.146 µM) | ≤ 0.015 µg/mL | 8 | 0.125 µg/mL (≈ 0.0728 µM)
C[C@H]1COc2c(N3CCN(C)CC3)c(F)cc3c(=O)c(C(=O)O)cn1c23 [LEVOFLOXACIN ANHYDROUS] | 1 µg/mL (≈ 2.77 µM) | 16 µg/mL (≈ 44.3 µM) | > 64 µg/mL | 64 µg/mL (≈ 177 µM) | – | – | 64 µg/mL (≈ 177 µM) | 8 µg/mL (≈ 22.1 µM) | 4 µg/mL (≈ 11.1 µM) | – | 0.25 µg/mL (≈ 0.692 µM) | 0.125 µg/mL (≈ 0.346 µM) | – | 4 µg/mL (≈ 11.1 µM) | – | – | 16 µg/mL (≈ 44.3 µM)
CN[C@H](CC(C)C)C(=O)N[C@H]1C(=O)N[C@@H](CC(N)=O)C(=O)N[C@H]2C(=O)N[C@H]3C(=O)N[C@H](C(=O)N[C@H](C(=O)O)c4cc(O)cc(O)c4-c4cc3ccc4O)[C@H](O)c3ccc(c(Cl)c3)Oc3cc2cc(c3O[C@@H]2O[C@H](CO)[C@@H](O)[C@H](O)[C@H]2O[C@H]2C[C@](C)(NCc3ccc(Oc4ccccc4)cc3)[C@H](O)[C@H](C)O2)Oc2ccc(cc2Cl)[C@H]1O | ≤ 0.03 µg/mL | – | ≤ 0.03 µg/mL | 8 µg/mL (≈ 4.9 µM) | ≤ 0.06 µg/mL | ≤ 0.06 µg/mL | ≤ 0.03 µg/mL | 0.5 µg/mL (≈ 0.306 µM) | 0.25 µg/mL (≈ 0.153 µM) | ≤ 0.03 µg/mL | ≤ 0.03 µg/mL | ≤ 0.03 µg/mL | 16 | 0.125 µg/mL (≈ 0.0766 µM) | ≤ 0.03 µg/mL | 8 | –
CN[C@H](CC(C)C)C(=O)N[C@H]1C(=O)N[C@@H](CC(N)=O)C(=O)N[C@H]2C(=O)N[C@H]3C(=O)N[C@H](C(=O)N[C@H](C(=O)O)c4cc(O)cc(O)c4-c4cc3ccc4O)[C@H](O)c3ccc(c(Cl)c3)Oc3cc2cc(c3O[C@@H]2O[C@H](CO)[C@@H](O)[C@H](O)[C@H]2O[C@H]2C[C@](C)(NCc3ccc(Oc4cc(Cl)cc(Cl)c4)cc3)[C@H](O)[C@H](C)O2)Oc2ccc(cc2Cl)[C@H]1O | ≤ 0.015 µg/mL | – | ≤ 0.015 µg/mL | 4 µg/mL (≈ 2.35 µM) | ≤ 0.06 µg/mL | ≤ 0.06 µg/mL | 0.03 µg/mL (≈ 0.0176 µM) | 0.125 µg/mL (≈ 0.0735 µM) | – | ≤ 0.015 µg/mL | ≤ 0.015 µg/mL | ≤ 0.015 µg/mL | 16 | ≤ 0.015 µg/mL | ≤ 0.015 µg/mL | 8 | –
CN[C@H](CC(C)C)C(=O)N[C@H]1C(=O)N[C@@H](CC(N)=O)C(=O)N[C@H]2C(=O)N[C@H]3C(=O)N[C@H](C(=O)N[C@H](C(=O)O)c4cc(O)cc(O)c4-c4cc3ccc4O)[C@H](O)c3ccc(c(Cl)c3)Oc3cc2cc(c3O[C@@H]2O[C@H](CO)[C@@H](O)[C@H](O)[C@H]2O[C@H]2C[C@](C)(NCCCc3cn(-c4cccc(NC(=O)OC(C)(C)C)c4)nn3)[C@H](O)[C@H](C)O2)Oc2ccc(cc2Cl)[C@H]1O | – | – | – | – | – | – | – | – | – | – | – | – | 8 | – | – | 8 | –
